1 compound from PMC8148064 (Acta Pharmaceutica Sinica. B, 2020) can be followed below.

The target in the assay is adenylyl cyclase-associated protein 1 (CAP1) (Homo sapiens, UniProt Q01518). The assay is described as follows: ITC with purified CAP1. The class given is binding.
Sequence of adenylyl cyclase-associated protein 1 (CAP1) (Q01518 2-475): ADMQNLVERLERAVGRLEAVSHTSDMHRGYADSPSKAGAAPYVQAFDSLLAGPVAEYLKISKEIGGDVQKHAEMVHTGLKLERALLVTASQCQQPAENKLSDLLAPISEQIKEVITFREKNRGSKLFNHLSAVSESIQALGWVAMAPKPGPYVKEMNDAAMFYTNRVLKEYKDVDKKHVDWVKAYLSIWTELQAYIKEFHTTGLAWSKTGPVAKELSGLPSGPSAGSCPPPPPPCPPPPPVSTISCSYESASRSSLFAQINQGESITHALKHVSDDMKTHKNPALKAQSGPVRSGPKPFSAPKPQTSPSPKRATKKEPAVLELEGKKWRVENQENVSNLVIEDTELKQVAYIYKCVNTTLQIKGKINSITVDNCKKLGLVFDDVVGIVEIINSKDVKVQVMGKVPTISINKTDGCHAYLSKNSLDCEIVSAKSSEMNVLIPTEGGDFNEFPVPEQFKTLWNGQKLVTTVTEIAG

Regarding `CC1=C(O)C(=O)C=C2C1=CC=C1[C@@]2(C)CC[C@@]2(C)[C@@H]3C[C@](C)(C(=O)O)CC[C@]3(C)CC[C@]12C` [celastrol], the Kd (in general, the concentration at which binding is half-saturated) worked out at 110 nM.
